# Data: patent publication EP1338280A1, “COMBINATION OF AMINES AND VANADIUM (IV)/(V) COMPOUNDS FOR THE TREATMENT AND/OR PREVENTION OF DIABETES MELLITUS” (priority 2000, dated 2002)
# Key:
# [1] = system: streptozotocin-induced diabetic rats; assay: Chronic administration in streptozotocin-induced diabetic rats; type: in vivo; conditions: for food and water consumption / weight of epididymal adipose tissue (adiposity): chronic treatment of diabetic rats
# Method: (§1) Based on the finding of potent insulin-like effects of in vitro incubation of benzylamine and vanadate, the chronic administration of these compounds in diabetic rats was tested. To this end, streptozotocin-induced diabetic rats were implanted subcutaneously with osmotic minipumps releasing benzylamine (84 µmol/kg/day) or were sham-operated. […] A group of animals was also subjected to daily i.p. injection of vanadate (50 µmol/kg body wt) for two weeks.
# In other studies, rats were daily injected intraperitoneally with 25 µmol/kg vanadate for the first week and with 50 µmol/kg for the second week. […] However, the combination of benzylamine and vanadate reduced hyperglycemia in diabetic rats during the second week of treatment (FIG. 7).
# The chronic treatment with benzylamine and vanadate caused a substantial decrease in food and water consumption which returned to normal levels and an increase in the weight of epididymal adipose tissue. All these variations occurred in the absence of changes in body weight. The effects on adiposity or food and water intake were not detected when benzylamine or vanadate was administered alone. Furthermore the normalisation of glycemia caused by chronic treatment with both benzylamine and vanadate takes place in the absence of changes in plasma insulin concentrations.
# isolated rat adipocytes = assay: Hexose transport ([3H]-2-deoxyglucose uptake) in isolated rat adipocytes; type: cell-based; set-up: 2-deoxyglucose uptake (stimulatory effect): dose or concentration left out as unconfirmed; conditions: for 2-deoxyglucose uptake (stimulatory effect): benzylamine or orthovanadate alone, 45 min incubation, ten-minute uptake; for glucose transport: 45 min preincubation of fat cells with increasing concentrations, 5-min 2-DG uptake
# Method: Adipocyte isolation. Male Wistar rats (200-260 g) were sacrificed in a fed state, and the internal epididymal adipose tissues was dissected out and digested in Krebs-Ringer buffer as described (cf. C. Carpene et al., Biochem. PharmacoL 1990, voL 40, pp. 437-445). Adipose cells isolated is such a way were used in subsequent studies.
# Hexose transport After a preincubation period of 45 min at 37 °C in vials containing 400 µl of cell suspension in KRBH with the tested products, [^3H]-2-deoxyglucose was added at a final concentration of 0.1 mM (approx. 1,300,000 d.p.m./vial). The assays were further incubated for 5 or 10 min and then stopped with 100 µl of cytochalasin B. Aliquots (200 µl) of the cell suspension were centrifuged in microtubes as described (cf. J.M. Olefsky, Biochem. J. 1978, voL 172, pp. 137-145). After centrifugation, the fat cells (upper part of the tubes) were placed in scintillation vials and the incorporated radioactivity was counted.
# GLUT4 = GLUT4 translocation: Western blot of GLUT4 in plasma membrane and low density microsome fractions of rat adipocytes; type: cell-based; set-up: abundance of GLUT4 in plasma membranes: dose or concentration left out as unconfirmed; conditions: for abundance of GLUT4 in plasma membranes: 45 minutes incubation, benzylamine or orthovanadate alone
# Method: To verify whether the stimulation of glucose transport in rat adipocytes may be explained by a translocation of the insulin-sensitive glucose transporters from an internal site to the plasma membrane, as it is known for insulin, the amount of GLUT4 protein was determined in plasma membrane (PM) and low density microsome (LDM) fractions. […] These increases in GLUT4 content occurred without any significant change in the content of β1-integrin, a constitutive PM protein. Changes in the GLUT4 content of LDM mirrored, to a lesser extent, those reported in the PM (basal LDM content was decreased by 29 % and 12 % with insulin and tyramine plus orthovanadate respectively).
# This study was carried out in order to determine whether the stimulation of glucose transport induced by the combination of benzylamine and orthovanadate was a consequence of alterations in the abundance of GLUT4 glucose carriers in the cell surface from adipose cells. Thus, isolated rat adipocytes were incubated in the absence or in the presence of insulin, benzylamine ([…]), orthovanadate ([…]) or the combination of benzylamine and orthovanadate, and 45 minutes later cells were homogenized and subjected to subcellular membrane fractionation. […] However, the incubation of cells with benzylamine and orthovanadate caused a 2.3-fold increase in the presence of GLUT4 in plasma membrane fractions. The effects of insulin or the combination benzylamine and orthovanadate on GLUT4 abundance in plasma membranes were specific and the plasma membrane marker β1-integrin remained unaltered after incubation with these agents. The recruitment of GLUT4 to the plasma membranes detected by insulin or the combination of benzylamine and orthovanadate was concomitant with a reduction of GLUT4 abundance in light microsomes. This was consistent with the view that benzylamine and orthovanadate translocate GLUT4 to the plasma membrane in isolated rat adipocytes.
# [2] = type: physicochemical
# Method: as §1
# [3] = vanadate i.p. daily 25 µmol/kg first week and 50 µmol/kg second week, benzylamine 84 µmol/kg
compound,measurement,setting,value
NCc1ccccc1 [benzylamine],food and water consumption,[1],not detected
same,weight of epididymal adipose tissue (adiposity),[1],not detected
same,glycemia,[1]; [3],remained hyperglycemic
same,2-deoxyglucose uptake (stimulatory effect),isolated rat adipocytes,no stimulatory effect
same,abundance of GLUT4 in plasma membranes,GLUT4,did not alter
same,stability in implanted osmotic minipumps,[2],stable for two weeks
OO [hydrogen peroxide],glucose transport,isolated rat adipocytes,dose-dependently stimulated
same,activation at 1000 µM,"isolated rat adipocytes; Rattus norvegicus, Adipocyte, 0.75 h, 1 mM H2O2, preincubation 45 min, n = 23, read-out: effect relative to the maximal insulin effect",46%
same,fold induction at 1000 µM,"isolated rat adipocytes; Rattus norvegicus, Adipocyte, 0.75 h, 1 mM H2O2, preincubation 45 min, n = 23, read-out: factor by which basal transport is multiplied",5 ± 0.8
"[Na+].[Na+].[Na+].[O]=[V]([O-])([O-])[O-] [orthovanadate, sodium orthovanadate Na3VO4]",food and water consumption,[1],not detected
same,weight of epididymal adipose tissue (adiposity),[1],not detected
same,glycemia,"[1]; vanadate 50 µmol/kg body wt daily i.p. for two weeks, benzylamine 84 µmol/kg/day by osmotic minipumps",moderate reduction
same,glycemia,[1]; [3],remained hyperglycemic
same,stimulation of glucose transport relative to that of 100 nM insulin (maximal insulin effect),"isolated rat adipocytes; 1 mM tyramine, 0.1 mM orthovanadate, n = 40",5 ± 1%
same,2-deoxyglucose uptake (stimulatory effect),isolated rat adipocytes,did not stimulate
same,basal or insulin-stimulated glucose transport,isolated rat adipocytes; orthovanadate alone 0.1 mM,did not affect
same,abundance of GLUT4 in plasma membranes,GLUT4,did not alter
same,amount of GLUT4 protein in the PM,"GLUT4; Western blot, orthovanadate 0.1 mM, n = 3",103 ± 8%
CNC[C@H](O)c1cccc(O)c1 [phenylephrine],glucose transport,isolated rat adipocytes,not activated
NNC(N)=O [semicarbazide],inhibition at 100 µM,"isolated rat adipocytes; Rattus norvegicus, Adipocyte, semicarbazide 0.1 mM, read-out: inhibition of the glucose transport promoted by 1 mM tyramine plus orthovanadate",59 ± 7%
same,benzylamine-orthovanadate-stimulated 2-deoxyglucose uptake,isolated rat adipocytes; semicarbazide 1 mM,abolished
same,glucose transport stimulated by 1 mM hydrogen peroxide plus 0.1 mM orthovanadate,isolated rat adipocytes; semicarbazide 1 mM,unaffected
NCCc1c[nH]c2ccc(O)cc12 [serotonin],glucose transport,isolated rat adipocytes,not activated
NCCc1ccc(O)cc1 [tyramine],glucose transport,isolated rat adipocytes,not activated
same,"synergism with low, ineffective dose of hydrogen peroxide on glucose transport","isolated rat adipocytes; hydrogen peroxide 0.01 mM, not shown",no synergism
same,"synergism with low, ineffective dose of insulin on glucose transport","isolated rat adipocytes; insulin 10 pM, not shown",no synergism
